Measurements from patent publication US8790675B2, “Biocide compositions comprising carbamates” (priority 2009, dated 2014).

Test: Solubility of biocides in solvents at 25° C.
Conditions: for Solubility of biocides: Tebucanozole: Tebucanozole dissolved in the solvent, 25° C.
Description: Solubility of two fungicides, one herbicide and two insecticides in different dialkyl amides at 25° C. was tested.

Row | Structure (SMILES) | able to dissolve or disperse a wide range of biocides better than solvents known from the state of the art (wide range of biocides, versus state-of-the-art solvents) | Solubility of biocides: Tebucanozole
1 | CN(C)C(=O)OCCO [Example 5] | 20% | –
2 | CCCCNC(=O)OCCO [Example 7] | – | 20 % b.w.
3 | CCCNC(=O)OCCO [Example 8] | – | 23 % b.w.
